Assay results published in patent US20030161854A1, “Synergistic formulations” (priority 2000, published 2003).

Tested on: 1st instar larvae of Lucilia cuprina
Experiment: In-vitro investigation for possible potentiation between spinosad and ivermectin in sheep blowfly larvae (treated chromatography papers, fractions of LC90)
Assay type: in vivo
Details: 48 hours
Protocol: Forty to 50 newly hatched 1st instar larvae of Lucilia cuprina were washed with sheep serum onto chromatography papers treated with serial dilutions of ivermectin or spinosad as set out below. After 48 hours numbers of live and dead larvae were counted. The LC90 was calculated for spinosad and ivermectin. Larvae were exposed to that concentration of spinosad or ivermectin and ½, ¼ and ⅛ of the LC90. In addition larvae were exposed to 1:1, 1:4, 4:1, 9:1 and 1:9 combinations of each chemical with each concentration of chemical being a fraction of the LC90.
There were 19 treatment groups in the study (plus an untreated control group):
D 12-14: Four:one rates of Ivermectin:Spinosad—(0.8×, 0.2×), (0.4×, 0.1×) and (0.2×, 0.05×)
E 15-17: Four:one rates of Spinosad:lvermectin—(0.8×, 0.2×), (0.4×, 0.1×) and (0.2×, 0.05×)
Each group was tested on 4 replicates of 50 flies and the number of dead flies per replicate was recorded.
The method of generalized linear models for overdispersed binomial data using the logistic link function was used for an analysis of the 19 treatment groups. The analysis estimated dose-response lines (on the logarithmic dose scale) for each chemical or combination. The lines for each separate chemical were used to predict the efficacy (on the logistic scale) of the combinations assuming independent action, i.e. with no synergism. These were compared with the efficacy observed or predicted from the dose-response lines for the combinations.

Substance	Mean efficacy (Dose-response) % (0.125x LC90) [%]	Mean efficacy (Dose-response) Logit (0.125x LC90)	Mean efficacy (Sample estimate) % (0.125x LC90) [%]	Mean efficacy (Sample estimate) Logit (0.125x LC90)	Mean efficacy (Dose-response) % (0.25x LC90) [%]	Mean efficacy (Dose-response) Logit (0.25x LC90)	Mean efficacy (Sample estimate) % (0.25x LC90) [%]	Mean efficacy (Sample estimate) Logit (0.25x LC90)	Mean efficacy (Dose-response) % (0.5x LC90) [%]	Mean efficacy (Dose-response) Logit (0.5x LC90)	Mean efficacy (Sample estimate) % (0.5x LC90) [%]	Mean efficacy (Sample estimate) Logit (0.5x LC90)	Mean efficacy (Dose-response) % (1.0x LC90) [%]	Mean efficacy (Dose-response) Logit (1.0x LC90)	Mean efficacy (Sample estimate) % (1.0x LC90) [%]	Mean efficacy (Sample estimate) Logit (1.0x LC90)
ivermectin	1.6	−4.14 ± 0.48	3.0	−3.48 ± 0.64	13.2	−1.88 ± 0.26	11.0	−2.09 ± 0.35	59.4	0.38 ± 0.18	59.5	0.38 ± 0.22	93.3	2.64 ± 0.34	94.0	2.75 ± 0.46
spinosad	9.8	−2.21 ± 0.28	16.0	−1.66 ± 0.30	30.7	−0.81 ± 0.17	22.0	−1.27 ± 0.27	64.1	0.58 ± 0.16	63.0	0.53 ± 0.23	87.9	1.98 ± 0.27	91.5	2.38 ± 0.39
